# Measurements: patent publication US20260008776A1 (HANGZHOU POLYMED BIOPHARMACEUTICALS, INC., priority 2023, published 2026)
# Read-outs that look alike come from different tables or passages of the source.
# How the values were obtained:
# [1] = Pharmacokinetic test in rats, oral gavage; type: in vivo, Sprague-Dawley rats
# Protocol: Subsequently, 976 μL of Tween 80 was added and vortexed for 30 seconds, followed by the addition of 488 μL of Kolliphor HS15 (Kolliphor HS15 was used after heating and melting at 50° C.) and vortexed for 30 seconds. Finally, […] of saline was added and vortexed for 30 seconds, followed by ultrasonication for 10 seconds to remove bubbles. The resulting administration preparation was a suspension.
# Subsequently, 1034 μL of Tween 80 was added and vortexed for 30 seconds, followed by the addition of 517 μL of Kolliphor HS15 (Kolliphor HS15 was used after heating and melting at 50° C.) and vortexed for 30 seconds. Finally, 8270 μL of saline was added and vortexed for 30 seconds, followed by ultrasonication for 10 seconds to remove bubbles. The resulting administration preparation was a suspension.
# Species and Strain: Sprague-Dawley rats (SD rats) (Zhejiang Vital River Laboratory Animal Technology Co., Ltd.) • Animal Grade: SPF level
# Planned initial body weight for administration: Male 200-250 g. Actual animal weights will be listed in the raw records. • Number and Gender of Animals: 3 (3 per group), male
# Based on measured body weights, animals with similar weights were divided into groups of 3 animals each. Blank group animals were used for the collection of blank biological matrices.
# • Administration route: Oral gavage • Administration volume: 10 mL/kg • Administration frequency: Single dose • Administration method: The test sample was administered orally via gavage using an appropriate syringe and gavage tube. When using a 2 mL or 5 mL syringe, the administration volume was recorded to one decimal place. When the minimum graduation value of the syringe was 0.2 mL and the administration volume was between two graduation marks, the higher volume was selected for administration.
# Sample collection: Approximately 0.30 mL of whole blood was collected from the orbital vein of Group 1 animals at each time point.
# The experimental animals were fasted for 12 hours before administration, with free access to water. Blood samples were collected from Group 1 animals (oral gavage group) at 5 min, 15 min, 30 min, 1 h, 2 h, 4 h, 6 h, 8 h, and 24 h after administration.
# Sample processing: The collected venous blood was immediately transferred to EDTA-Na2-coated EP tubes (stored in a refrigerator or in an ice box with crushed ice at 2-8° C. prior to use), inverted at least 5 times for thorough mixing, and temporarily stored in an ice box with crushed ice. The collected whole blood was centrifuged at 2000 g for 10 min under 2-8° C. conditions within 2 h to separate plasma, which was then placed in newly labeled centrifuge tubes and stored at −20° C.
# The pharmacokinetics group of the Department of Pharmacology and Toxicology conducted the analysis and measurement of all samples, followed by data summarization. Plasma concentration data were analyzed using the pharmacokinetic data analysis software WinNonlin. Non-compartmental analysis (NCA) was employed to calculate pharmacokinetic parameters such as t1/2, Cmax, Tmax, Vd, CL, AUC0-24, and F. The detailed results are shown in the following table: […]
# [2] = Simulated granulation test (dry and wet grinding); type: physicochemical; details: dry grinding 30 minutes; wet grinding with ethanol 30 minutes
# From the text: The purpose was to determine whether polymorphs, solvates, or amorphous forms were readily generated.
# [3] = High-pressure property test; type: physicochemical; details: hydraulic pressure 10 tons, 5 minutes
# From the text: The resulting solid was characterized by XRPD and other methods to evaluate its crystal form stability under high-pressure conditions.
# [4] = Crystal form transformation, suspension competition experiments; type: physicochemical; details: C, D, E, RT; for XRPD of solid after suspension competition: crystal forms A, G together (20 mg each), EtOH/H2O 1/1 (v/v); for XRPD: suspension competition of crystal forms A, G (20 mg each), DMSO/EtOH 1/8 (v/v) saturated solution 15 V
# Protocol: In order to study the transformation relationship between various crystal forms and prepare various crystal forms under repeated conditions, a series of suspension competition experiments were carried out on crystal forms A, C, D, E, and G in different solvent systems. The specific experimental steps are as follows:
# 20 mg of each of crystal forms A, C, D, E, and G were weighed into 5 mL glass vials, and solvents (EtOH/H2O=1/1 (v/v) or DMSO (dimethyl sulfoxide)/EtOH=1/8 (v/v)) were added to form suspensions. The vials were then transferred to 25° C. and stirred for 72 hours. At various time points, the filter cakes were tested by XRPD.
# [5] = Solid-state stability study, influencing factor test of crystal form A; type: physicochemical
# Protocol: The glass dish or glass vial was then subjected to different environments in a constant temperature and humidity chamber. The conditions include: illumination: 4500±500 Lux; high temperature: 60° C. (sealed); and high humidity: 25° C. with relative humidity RH=90±5% (open).
# [6] = Hygroscopicity study of crystal form A by dynamic vapor sorption (DVS); type: physicochemical; details: for Desorption (%) / Sorption (%): DVS
# Protocol: The important hygroscopicity of this compound was tested using a dynamic vapor sorption (DVS) instrument. DVS is a dynamic measurement method, so during the measurement process, the sample will undergo a change in mass. Like other types of research methods, DVS records the change in mass of the sample as the relative humidity changes.
# MV4-11 cells = test: Killing activity against MV4-11 cells (CellTiter-Glo, CTG); type: cell-based; details: Homo sapiens, 72 hours incubation, read-out: IC50 of cell killing activity against MV4-11
# From the text: Reagent and consumable information is as follows: • MV4-11 Cells (ATCC, Cat. No. CRL-9591) • DPBS (Dulbecco's Phosphate Buffered Saline, Biosera, Cat. No. LM-S2041/500) • IMDM Medium (Thermo, Cat. No. 12440053) • Fetal Bovine Serum (Biological, Cat. No. 04-002-1A) • Penicillin-Streptomycin Solution (Invitrogen, Cat. No. 15140122) • Dimethyl Sulfoxide (Sigma, Cat. No. D2650) • CellTiter-Glo Luminescent Cell Viability Assay (Promega, Cat. No. G7573) • 96-Well Plate (Corning, Cat. No. 3903)
# 1. MV-4-11 cells were cultured in a complete IMDM medium (IMDM+10% fetal bovine serum+1% Penicillin-Streptomycin, a mixture of penicillin and streptomycin).
# 2. MV-4-11 cells with good cell status were collected and washed twice with DPBS (Dulbecco's phosphate buffered saline).
# 3. MV-4-11 cells were resuspended in a complete IMDM medium, adjusted to a cell density of 1.11×10^6 cells/mL, and 90 μL of the mixture was added to each well of a 96-well plate.
# 4. A 10-fold concentration of the compound solution was prepared in a complete IMDM medium, and 10 μL of the 10-fold concentration of the compound solution was added to each well of the 96-well plate. After mixing well, the 96-well plate was incubated in a 37° C., 5% CO2 incubator for 72 hours.
# 5. […]
# 6. The 96-well plate was removed and equilibrated at room temperature for 10 minutes, and then the chemiluminescence value was measured using a microplate reader.
# [7] = rats, PO, 40 mpk, single dose, plasma
smiles,measurement,setting,value
CC(C)(O)CCn1cc2cc(NC(=O)c3coc(-c4ccnc(C(F)(F)F)c4)n3)c(C(C)(C)O)cc2n1.Cl [hydrochloride salt],Plasma concentration and exposure compared with the free base,"[1]; SD rats, single oral gavage, 4 mg/mL suspension, 10 mL/kg",significantly increase
same,AUC0-24,[1]; [7],27508.69 ng·h/mL
same,Cmax,[1]; [7],5117.67 ng/mL
CC(C)(O)CCn1cc2cc(NC(=O)c3coc(-c4ccnc(C(F)(F)F)c4)n3)c(C(C)(C)O)cc2n1 [crystal form A],"Crystal form after simulated granulation (XRPD, DSC)",[2],have not changed
same,Crystal form after high-pressure treatment (XRPD),[3],has not changed
same,XRPD of solid after suspension competition,[4]; 24 hours,Crystal Form C
same,XRPD of solid after suspension competition,[4]; 48 hours,Crystal Form C
same,XRPD of solid after suspension competition,[4]; 72 hours,Crystal Form C
same,XRPD,[4]; 24 hours,Crystal Form A
same,XRPD,[4]; 48 hours,Crystal Form A
same,XRPD,[4]; 72 hours,Crystal Form A
same,Purity,"[5]; High Relative Humidity (RH = 90 ± 5%, Open, 25° C.), 5 Days",99.60%
same,Purity,"[5]; High Relative Humidity (RH = 90 ± 5%, Open, 25° C.), 11 Days",99.56%
same,Purity,"[5]; High Temperature (60° C., Sealed), 5 Days",99.26%
same,Purity,"[5]; High Temperature (60° C., Sealed), 11 Days",99.67%
same,Purity,"[5]; Strong Illumination (Open), 5 Days",99.67%
same,Purity,"[5]; Strong Illumination (Open), 11 Days",99.44%
same,Solid-state stability evaluation,"[5]; illumination 4500±500 Lux, 60° C. sealed, 25° C. RH=90±5% open",good physical and chemical properties
same,Purity,"[5]; initial, before stress",99.70%
same,Change in crystal form before and after DVS testing (XRPD),[6],no change in crystal form
same,"Hygroscopicity (DVS), in words","[6]; 25° C., up to 90 RH",low hygroscopicity
same,Moisture sorption (DVS),"[6]; 25° C./90 RH, two sorption-desorption curves",less than 0.0400
same,Desorption (%),"[6]; first cycle, 0% RH",−0.01%
same,Sorption (%),"[6]; first cycle, 0% RH",0.00%
same,Desorption (%),"[6]; first cycle, 10% RH",0.00%
same,Sorption (%),"[6]; first cycle, 10% RH",−0.01%
same,Desorption (%),"[6]; first cycle, 20% RH",0.00%
same,Sorption (%),"[6]; first cycle, 20% RH",0.00%
same,Desorption (%),"[6]; first cycle, 30% RH",0.00%
same,Sorption (%),"[6]; first cycle, 30% RH",0.00%
same,Desorption (%),"[6]; first cycle, 40% RH",0.01%
same,Sorption (%),"[6]; first cycle, 40% RH",0.00%
same,Desorption (%),"[6]; first cycle, 50% RH",0.02%
same,Sorption (%),"[6]; first cycle, 50% RH",0.01%
same,Desorption (%),"[6]; first cycle, 60% RH",0.02%
same,Sorption (%),"[6]; first cycle, 60% RH",0.01%
same,Desorption (%),"[6]; first cycle, 70% RH",0.03%
same,Sorption (%),"[6]; first cycle, 70% RH",0.02%
same,Desorption (%),"[6]; first cycle, 80% RH",0.03%
same,Sorption (%),"[6]; first cycle, 80% RH",0.03%
same,Desorption (%),"[6]; first cycle, 90% RH",0.03%
same,Sorption (%),"[6]; first cycle, 90% RH",0.03%
same,Desorption (%),"[6]; second cycle, 0% RH",−0.01%
same,Sorption (%),"[6]; second cycle, 0% RH",−0.01%
same,Desorption (%),"[6]; second cycle, 10% RH",−0.01%
same,Sorption (%),"[6]; second cycle, 10% RH",−0.01%
same,Desorption (%),"[6]; second cycle, 20% RH",0.00%
same,Sorption (%),"[6]; second cycle, 20% RH",−0.01%
same,Desorption (%),"[6]; second cycle, 30% RH",0.00%
same,Sorption (%),"[6]; second cycle, 30% RH",−0.01%
same,Desorption (%),"[6]; second cycle, 40% RH",0.01%
same,Sorption (%),"[6]; second cycle, 40% RH",0.00%
same,Desorption (%),"[6]; second cycle, 50% RH",0.01%
same,Sorption (%),"[6]; second cycle, 50% RH",0.01%
same,Desorption (%),"[6]; second cycle, 60% RH",0.02%
same,Sorption (%),"[6]; second cycle, 60% RH",0.01%
same,Desorption (%),"[6]; second cycle, 70% RH",0.03%
same,Sorption (%),"[6]; second cycle, 70% RH",0.02%
same,Desorption (%),"[6]; second cycle, 80% RH",0.03%
same,Sorption (%),"[6]; second cycle, 80% RH",0.02%
same,Desorption (%),"[6]; second cycle, 90% RH",0.03%
same,Sorption (%),"[6]; second cycle, 90% RH",0.03%
same,Moisture Sorption,"[6]; at 90% RH, DVS 25° C.",Moisture Sorption of 0.03% at 90% RH
CC(C)(O)CCn1cc2cc(NC(=O)c3coc(-c4ccnc(C(F)(F)F)c4)n3)c(C(C)(C)O)cc2n1 [formula I],IC50,MV4-11 cells,21 nM
same,AUC(0-t),"[1]; male, Sprague-Dawley, rat, 40 mg/kg, rats, PO, 40 mpk, single dose, plasma, read-out: AUC0-24",4880 ng·h/mL
same,Cmax,"[1]; male, Sprague-Dawley, rat, 40 mg/kg, rats, PO, 40 mpk, single dose, plasma, read-out: Cmax",934 ng/mL
